{"source": "patent US11883400B2", "about": "“Treatment of portal hypertension and cirrhosis” (Noorik Biopharmaceuticals AG, priority 2018, dated 2024)", "key": {"[1]": {"system": "patients with early cirrhosis", "conditions": "cited from earlier work"}, "[2]": {"system": "patients with portopulmonary hypertension", "conditions": "cited from earlier work"}, "[3]": {"system": "patient with portopulmonary hypertension", "conditions": "one case of portopulmonary hypertension; cited from earlier work"}, "[4]": {"system": "adult subjects with a history of cirrhosis and portal hypertension", "experiment": "Clinical study NCT03827200: portal pressure estimated by Hepatic Venous Pressure Gradient (HVPG)", "assay_type": "in vivo, human", "protocol": "(§1) In the context of a clinical study (ClinicalTrials.gov Identifier: NCT03827200), ambrisentan was administered to 8 adult subjects with a history of cirrhosis and portal hypertension. […] A liquid formulation of ambrisentan was used, consisting of a solution of propylene glycol:ethanol (50:50 w/w) and ambrisentan at a concentration of 5 mg/mL. The solution was reconstituted prior to administration in water or propylene glycol. All subjects were treated for 14 days. Portal pressure was estimated in this study by means of the Hepatic Vein Pressure Gradient (HVPG), the current gold standard to evaluate the degree of portal hypertension in adults with cirrhosis (as described in Bosch, J., Abraldes, J. G., Berzigotti, A., & Garcia-Pagan, J. C. (2009). The clinical use of HVPG measurements in chronic liver disease. Nature Reviews Gastroenterology & Hepatology, 6(10), 573-582). HVPG was measured at baseline and prior to the first administration of ambrisentan. Post-baseline values for HVPG were obtained at 90 minutes following the administration of the first dose of ambrisentan. After 14 days of treatment, HVPG was determined at trough (prior to the last dose) and 90 minutes following the last dose of ambrisentan. Two dose groups were evaluated in this study. In the high dose group, 4 subjects were administered 50 μg ambrisentan on day 1 subcutaneously, followed by 100 μg of ambrisentan twice a day orally for 13 days, for a total daily dose of 200 μg. On day 14, subjects in the high dose group received a final dose of 50 μg ambrisentan subcutaneously. In the low dose group, 4 subjects were administered 10 μg ambrisentan on day 1 subcutaneously, followed by 14 μg of ambrisentan once a day orally for 13 days. On day 14, subjects in the low dose group received a final dose of 10 μg ambrisentan subcutaneously.\nAll subjects had portal hypertension as determined by HVPG at baseline (mean 19.7 mmHg, range 9-29 mmHg). […] An initial decrease in HVPG was apparent at 90 minutes post-administration in the low-dose group, and the reduction in HVPG was even larger at day 14 when compared to day 1 (Table 2)."}, "[5]": {"experiment": "Pharmacokinetic analysis of ambrisentan plasma concentrations in the clinical study", "assay_type": "in vivo, human", "conditions": "high dose group", "protocol": "as §1, with “In the high dose group, 4 subjects were administered 50 μg ambrisentan on day 1 subcutaneously, followed by 100 μg of ambrisentan twice a day orally for 13 days, for a total daily dose of 200 μg. On day 14, subjects in the high dose group received a final dose of 50 μg ambrisentan subcutaneously. In the low dose group, 4 subjects were administered 10 μg ambrisentan on day 1 subcutaneously, followed by 14 μg of ambrisentan once a day orally for 13 days. On day 14, subjects in the low dose group received a final dose of 10 μg ambrisentan subcutaneously.” left out"}, "[6]": {"system": "patients with cirrhosis", "conditions": "administered through the hepatic artery, cited from earlier work"}}, "note": "Non-standard residues stand in square brackets, D forms with d. Residues, ends and D or L forms follow the SMILES beside them.", "data": [{"smiles": "CCCC[C@@H](NC(=O)[C@@H](Cc1cn(C(=O)OC)c2ccccc12)NC(=O)[C@H](CC(C)(C)C)NC(=O)N1[C@H](C)CCC[C@@H]1C)C(=O)O", "note": "[BQ-788]", "values": [{"measurement": "Acute reduction of portal pressure as assessed by HVPG", "setting": "[1]", "result": "did not show any acute reduction on portal pressure"}]}, {"smiles": "CCCNS(=O)(=O)Nc1ncnc(OCCOc2ncc(Br)cn2)c1-c1ccc(Br)cc1", "note": "[macitentan]", "values": [{"measurement": "6-minute walking distance", "setting": "[2]", "result": "no effect"}, {"measurement": "Portal pressure as determined by HVPG", "setting": "[2]", "result": "not showing a significant difference"}]}, {"smiles": "COc1ccccc1Oc1c(NS(=O)(=O)c2ccc(C(C)(C)C)cc2)nc(-c2ncccn2)nc1OCCO", "note": "[bosentan]", "values": [{"measurement": "Portal pressure as measured by HVPG", "setting": "[3]", "result": "decrease"}, {"measurement": "Pulmonary pressure", "setting": "[3]", "result": "decrease"}]}, {"smiles": "COC(c1ccccc1)(c1ccccc1)[C@H](Oc1nc(C)cc(C)n1)C(=O)O", "note": "[ambrisentan]", "values": [{"measurement": "Change in HVPG from baseline, percent change, mean", "setting": "[4]; dose group 10/14 μg, N=4, Day 1, 90 m after first dose", "result": "−6.4", "unit": "%"}, {"measurement": "Change in HVPG from baseline, percent change, mean", "setting": "[4]; dose group 10/14 μg, N=4, Day 14, 90 m after last dose", "result": "−14.1", "unit": "%"}, {"measurement": "Change in HVPG from baseline, percent change, mean", "setting": "[4]; dose group 10/14 μg, N=4, Day 14, trough (0 H)", "result": "−9.2", "unit": "%"}, {"measurement": "Change in HVPG from baseline, percent change, mean", "setting": "[4]; dose group 50/200 μg, N=4, Day 1, 90 m after first dose", "result": 4.8, "unit": "%"}, {"measurement": "Change in HVPG from baseline, percent change, mean", "setting": "[4]; dose group 50/200 μg, N=4, Day 14, 90 m after last dose", "result": 11.7, "unit": "%"}, {"measurement": "Change in HVPG from baseline, percent change, mean", "setting": "[4]; dose group 50/200 μg, N=4, Day 14, trough (0 H)", "result": 9.2, "unit": "%"}, {"measurement": "Steady-state trough ambrisentan plasma concentration", "setting": "[5]; 100 μg twice daily orally for 13 days", "result": "about 10 ng/mL"}, {"measurement": "concentration at 2 h", "setting": "[5]; human, plasma, subcutaneous, 50 μg at day 14, 2 hours post-administration", "result": 18, "unit": "ng/mL"}]}, {"smiles": "CC(C)C[C@@H]1NC(=O)[C@@H](C(C)C)NC(=O)[C@@H]2CCCN2C(=O)[C@@H](CC(=O)O)NC(=O)[C@@H](Cc2c[nH]c3ccccc23)NC1=O", "note": "[BQ-123] (cyclo(L[dW][dD]P[dV]))", "values": [{"measurement": "Reduction of portal pressure as determined by HVPG", "setting": "[6]; acute", "result": 18, "unit": "%"}, {"measurement": "Hepatic artery blood flow", "setting": "[6]", "result": "significant increase"}, {"measurement": "Acute reduction of portal pressure as assessed by HVPG", "setting": "[1]", "result": "did not show any acute reduction on portal pressure"}]}]}
